According to US9540299B2, “MTOR-independent activator of TFEB for autophagy enhancement and uses thereof” (Hong Kong Baptist University, priority 2015, dated 2017):

Tested on: N2a cells
Test: LC3-II levels by western blot in N2a cells (autophagy induction)
Assay type: cell-based, mouse
Details: for LC3-II levels in the presence of chloroquine compared with CQ treatment alone / LC3-II levels compared to the vehicle control: 12 h; for LC3-II levels in the presence of chloroquine compared with CQ treatment alone / LC3-II levels compared to the vehicle control / LC3-II levels in cells depleted of Atg5 by siRNA: analogs 1 μM; for LC3-II levels in the presence of chloroquine compared with CQ treatment alone: CQ 20 μM; for LC3-II levels compared to the vehicle control / LC3-II levels in cells depleted of Atg5 by siRNA: curcumin 10 μM; for LC3-II levels compared to the vehicle control: vs 0.1% DMSO; for LC3-II levels in cells depleted of Atg5 by siRNA: siAtg5 72 h then compound 12 h
Experimental: N2a cells were treated with curcumin (Cur, 10 μM) and its analogs (1 μM) for 12 h (FIG. 2A). N2a cells were treated with Cur (10 μM), analogs A2, B3 and C1 (1 μM) with or without chloroquine (CQ, 20 μM) for 12 h (FIG. 2B). N2a cells were transfected with non-target siRNA (siNT) or Atg5 siRNA (siAtg5, 50 nM) for 72 h and then treated with Cur (10 μM) and analogs A2, B3 and C1 (1 μM) for 12 h (FIG. 2C). The expression of LC3-II is determined by western blot. Relative intensity is normalized to that of ACTB/β-actin. Data are presented as the mean±SD from three independent experiments. *p<0.05 vs. the control (0.1% DMSO); #p<0.05 vs. CQ treatment alone. N. S.=not significant.
(§1) N2a cells are treated with curcumin E series analogs (1 μM) for 12 hours. The expression of LC3-II is shown in Western blot (FIG. 13A). LC3-II relative intensity is normalized to that of ACTB/β-actin. Quantification data (FIG. 13B) are presented as the mean±SD from three independent experiments. *p<0.05 vs. the control (0.1% DMSO).
as §1, with “E2, E3 and E4” for “curcumin E series analogs”, “(1 μM) in the presence or absence of chloroquine (CQ, 20” for “(1”, “14A).” for “13A).”, “14B)” for “13B)”, “DMSO); ^#p<0.05 vs. CQ treatment alone.” for “DMSO).”
as §1, with “E4” for “curcumin E series analogs (1 μM)”, “determined by” for “shown in”, “blotting” for “blot”, “20A).” for “13A).”, “20B)” for “13B)”, “*p<0.05, **p<0.01” for “*p<0.05”
N2a cells are transfected with non-target siRNA (Si-NT) and TFEB siRNA. The levels of TFEB is examined by Western blotting (FIG. 27A) analysis and quantified (FIG. 27B). The effects of knock-down the expression of TFEB on the expression of LC3-II levels induced by E4 (1 μM) is also examined by Western blotting (FIG. 27C). Quantification data are presented as the mean±SD from three independent experiments (FIG. 27D). *p<0.05 vs. the control (0.1% DMSO), # p<0.05 vs. CQ alone.
N2a, Hela and Hela cells stably expressing 3×-Flag-TFEB are cultured in DMEM supplemented with 10% FBS. SH-SY5Y cells are cultured in DMEM/F12 supplemented with 10% FBS. For drug treatment, the full medium is replaced by fresh Opti-MEM I and then the compounds (in 0.1% DMSO) are added to the cells and incubated for 12 h. Inducible PC12 cells overexpressing SNCA (WT and A53T) (a kind gift from Prof. David C. Rubinsztein at Cambridge University) are grown in DMEM supplemented with 10% horse serum, 5% FBS, 50 μg/ml G418, and 150 μg/ml hygromycin B at 37° C., 10% CO2. Cells are treated with 2 μg/ml doxycycline (Dox) for 24 h to induce SNCA expression. The full medium is changed to Opti-MEM I containing the testing compounds for another 48 h.
Mouse Atg5 siRNA (25 nM) or human TFEB (100 nM) siRNA and the non-target siRNAs are transfected with Lipofectamine RNAiMAX (13778030, Invitrogen) and incubated at 37° C. for 72 h.
Cells are lysed on ice in 1× Lysis Buffer (9803, Life Technologies) with complete protease inhibitor mixture (04693124001, Roche Applied Science). Animal tissues are homogenized in nine volumes of ice-cold PBS supplemented with protease inhibitors. Cytosolic and nuclear fractions are isolated using protocols similar to those described previously. Anti-Flag or TFEB antibody is added to the whole cell lysates and Dynabeads® Protein G (10003D, Life Technologies) is used for immunoprecipitation. Proteins are separated by 10-15% SDS-PAGE, transferred, and blotted with the antibodies described. The blots are then incubated with secondary antibodies or the Clean-Blot IP Detection Reagent (21230, Thermo Scientific) at room temperature for 1 h. The protein signals are detected by ECL kit (32106, Pierce) and quantified using ImageJ software. […]

Structure (SMILES) | LC3-II levels in the presence of chloroquine compared with CQ treatment alone | LC3-II levels compared to the vehicle control | LC3-II levels in cells depleted of Atg5 by siRNA | LC3-II levels plus CQ compared with CQ treatment alone in cells transfected with non-target siRNA (Si-NT, with CQ) | expression of LC3-II, dose-dependent (0-1 μM, 12 hours, dose-dependent manner) | autophagy-enhancing effect, comparison among E series compounds tested (1 μM, 12 hours) | LC3-II levels compared with the control in cells transfected with non-target siRNA (Si-NT, 1 μM) | induced autophagy (LC3-II levels) after knock-down of TFEB (TFEB siRNA, 1 μM)
O=C(/C=C/c1cccc(C(F)(F)F)c1)/C=C/c1cccc(C(F)(F)F)c1 [A2, 1,5-bis(3-(trifluoromethyl)phenyl)penta-1,4-dien-3-one] | further increase | significantly increase | failed to increase | – | – | – | – | –
O=C(/C=C/c1ccc(O)cc1)/C=C/c1ccc(O)cc1 [B3, 1,5-bis(4-hydroxyphenyl)penta-1,4-dien-3-one] | further increase | significantly increase | failed to increase | – | – | – | – | –
COc1ccccc1/C=C/C(=O)/C=C/c1ccccc1OC [C1, 1,5-bis(2-methoxyphenyl)penta-1,4-dien-3-one] | further increase | significantly increase | failed to increase | further increased | – | – | – | –
O=C(/C=C/c1ccccc1Cl)/C=C/c1ccccc1Cl [E2] | further increase | significantly increase | – | – | – | – | – | –
O=C(/C=C/c1ccccc1Br)/C=C/c1ccccc1Br [E3] | further increase | significantly increase | – | – | – | – | – | –
O=C(/C=C/c1ccccc1I)/C=C/c1ccccc1I [E4] | further increase | significantly increase | – | – | significantly increase | best autophagy-enhancing effect | significantly increases | attenuated
COc1cc(/C=C/C(=O)CC(=O)/C=C/c2ccc(O)c(OC)c2)ccc1O [curcumin, Curcumin, reference compound] | – | significantly increase | failed to increase | – | – | – | – | –
